Measurements: patent US20170304411A1, “TOPICAL FORMULATION FOR TREATING SKIN OR MUCOSAL INFECTIONS, PREPARATION METHOD AND USES THEREOF” (HPRD - HEALTH PRODUCTS RESEARCH AND DEVELOPMENT LDA, priority 2014, published 2017)

Legend:
[1] = tested on: biofilms from C. albicans strains; assay: Checkerboard bromelain/clotrimazole, metabolic activity of biofilms (XTT reduction assay); assay type: cell-based; settings: increasing concentrations of clotrimazole alone; tested C. albicans strains
Source text: Following the washing step of microplates, the number of metabolically active cells available to metabolize XTT is reduced, leading to the overall reduction on metabolic activity.

[2] = tested on: biofilms from C. albicans strains; settings: clotrimazole alone, without bromelain
[3] = applied with no dilution on skin and mucosa as occlusive patch; cited from earlier work
[4] = after application in the eye; cited from earlier work
[5] = tested on: planktonic cells of different Candida species, including C. albicans; assay: Direct fungistatic or fungicidal activity against planktonic cells; assay type: cell-based; settings: previous studies by the applicant's team
Procedure: When bromelain is added, an increase of activity reduction is observed, dependent on the enzyme concentration (the addition of a 250 μg/mL bromelain solution leads to metabolic activity reductions near 80% for both strains). […] Thus, the increase in metabolic activity reduction shown for the combination of bromelain and clotrimazole is not due to a direct fungistatic activity of the enzyme, but to a degradation of the biofilm matrix. The degradation of this matrix allows for the penetration of clotrimazole in the biofilm favouring its antimicrobial action.

Clc1ccccc1C(c1ccccc1)(c1ccccc1)n1ccnc1 [clotrimazole]
reduction of metabolic activity [1]: ≤ 60% | reduction of biofilm biomass [2]: limited

CC(=O)OCC(COC(C)=O)OC(C)=O [triacetin]
irritation potential [3]: low irritation potential | ocular irritation [4]: induces an ocular irritation it does not cause harm

bromelain
direct fungistatic or fungicidal activity [5]: does not exhibit direct fungistatic or fungicidal activity
